Laboratory results from patent publication US20250221953A1 (The University of Chicago, priority 2022, published 2025).
Counter-ions that a name gives are not always drawn.

System: Jurkat T cells
Assay: not given
Format: cell-based, human
Conditions: IL-2 production level in treated group compared to control group; 48 hours treatment, then anti-CD3/anti-CD28 12 hours
Text: Two preliminary screens were designed and performed.
To construct “blood chemical compound library for cell-based screening purposes, components such as antibodies that are difficult to distinguish due to a wide variety, and some supplements that only function at a whole organism level including fish oils and herbs were excluded. Physiological ranges of serum levels of individual blood chemicals are available in the human metabolome database (https://hmdb.ca/) and applied in the experimental design. For first screen 1a, Jurkat T cells were treated with blood chemical library for 48 hours and then activated with 2.5 μg/mL anti-CD3 and 0.5 μg/mL anti-CD28 antibodies for another 12 hours, followed by measurement of IL-2 level in medium supernatant using ELISA kit (Biolegend). For first screen 1b, 1×10^5 PD-1^+ Jurkat T cells were co-cultured with 2×10^4 H596 (PD-L1^+) cells in a well of 96-well plate for 60 hours, and then activated with 2.5 μg/mL anti-CD3 and 0.5 μg/mL anti-CD28 antibodies for another 12 hours, followed by measurement of IL-2 level in medium supernatant using ELISA kit. Please also refer to Resources Table and Table 1-2 for more details.

Molecule | Relative changed percentage (%)
O=C(O)CCCCC1CCSS1 (stereo not drawn) [alpha-lipoic acid] | 54.62
O=C([O-])/C=C/C(=O)[O-].[Fe+2] [Ferrous Fumarate] | 6.278
O=C(O)c1cccnc1 [Nicotinic Acid] | 205.6
NCC(=O)O [Glycine] | −8.966
N[C@@H](Cc1c[nH]c2ccccc12)C(=O)O [L-Tryptophan] | 1.358
C=C1CC[C@H](O)C/C1=C/C=C1\CCC[C@]2(C)[C@@H]([C@H](C)/C=C/[C@H](C)C(C)C)CC[C@@H]12 [ERGOCALCIFEROL] | 16.01
CC[N+](CC)(CC)CC.O=S(=O)([O-])O | −35.95
[Cl][Hg][Cl] [MERCURY(II) CHLORIDE] | −2.995
L-A-PHOSPHATIDYLETHANOLAMINE TYPE I | 32.24
[F-].[Na+] [Sodium Fluoride] | −43.81
CC1=C(/C=C/C(C)=C/C=C/C(C)=C/C=C/C=C(C)/C=C/C=C(C)/C=C/C2=C(C)C[C@@H](O)CC2(C)C)C(C)(C)C[C@H](O)C1 [Zcaxanthin] | −1.652
L-A-PHOSPHATIDYLCHOLINE TYPE XVI-E | 38.1
N[C@@H](CCC(=O)N[C@@H](CS)C(=O)NCC(=O)O)C(=O)O [L-GLUTATHIONE REDUCED] | 48.28
CC1=C(/C=C/C(C)=C/C=C/C(C)=C/C=C/C=C(C)/C=C/C=C(C)/C=C/C2=C(C)C(=O)[C@@H](O)CC2(C)C)C(C)(C)C[C@H](O)C1=O [Astaxanthin] | 12.26
CHONDROITIN SULFATE, A SODIUM SALT | 9.195
O=C(O)CCCC[C@@H]1SC[C@@H]2NC(=O)N[C@@H]21 [BIOTIN, POWDER,, BIOTIN] | 36.45
CC(=O)[C@@]1(O)CC[C@H]2[C@@H]3CCC4=CC(=O)CC[C@]4(C)[C@H]3CC[C@@]21C [17A-HYDROXYPROGESTERONE] | 41.36
VASOACTIVE INTESTINAL PEPTIDE | 1.0212
CCCCCCCC/C=C\CCCCCCCCCCCCCC(=O)O [Nervonic acid] | 37.68
O=S(=O)([O-])[O-].[Cu+2] [Copper sulfate] | −26.32
SULFUR/sulfide | 24.14
C[C@]12CCC(=O)C[C@@H]1CC[C@@H]1[C@@H]2CC[C@]2(C)[C@@H](O)CC[C@@H]12 [5ALPHA-DIHYDROTESTOSTERONE (DIIT)/DIIT, 5ALPHA-DIHYDROTESTOSTERONE] | −3.457

Molecule | Relative changed percentage (%)
C[N+](C)(C)CC(=O)O [BETAINE] | −18.83
COc1cc(CNC(=O)CCCC/C=C/C(C)C)ccc1O [Capsaicin] | 1.661
NC(=O)c1cccnc1 [Niacinamide] | 95.23
Oc1ccccc1 [PHENOL] | 26.79
ADENINE DI[…] SALT HYDRAT | −0.3704
CC/C=C\C/C=C\C/C=C\C/C=C\CCCCC(=O)O [Stearidonic Acid] | 109.3
[Cl-].[Cl-].[Sr+2] [strontium chloride] | 30.89
[Cl][Cd][Cl] [CADMIUM CIILORIDE/cadmium, CADMIUM CIILORIDE] | 32.11
NC(=O)CC[C@H](N)C(=O)O [L-Glutamine] | 25.52
O=C(O)CCCC[C@@H]1SC[C@@H]2NC(=O)N[C@@H]21 [d-Biotin] | 29.84
[Cl-].[Cl-].[Mg+2] [MAGNESIUM CHLORIDE ANHYDROUS] | 31.9
[Cl-].[Na+] [SODIUM CHLORIDE] | 36.53
CC1=C(/C=C/C(C)=C/C=C/C(C)=C/C=C/C=C(C)/C=C/C=C(C)/C=C/C2=C(C)CCCC2(C)C)C(C)(C)CCC1 [all trans B carotene] | 35.08
O=C([O-])CC(O)(CC(=O)[O-])C(=O)[O-].[K+].[K+].[K+] [Potassium Citrate] | 58.7511
CC1=C(/C=C/C(C)=C/C=C/C(C)=C/C=C/C=C(C)/C=C/C=C(C)/C=C/C2=C(C)C[C@@H](O)CC2(C)C)C(C)(C)CCC1 [BETA-CRYPTOXANTHIN] | 24.88
N[C@@H](CS)C(=O)O [L-Cysteine] | 32.82
CC1=C[C@H](O)CC(C)(C)C1/C=C/C(C)=C/C=C/C(C)=C/C=C/C=C(C)/C=C/C=C(C)/C=C/C1=C(C)CCCC1(C)C (some centres unmarked) [A-CRYPTOXANTHIN] | 29.1
Tricalcium phosphate hydrate | 51.49
Cl.NCCc1ccc(O)c(O)c1 [3-HYDRO[…]/dopamine, 3-HYDRO[…]] | 18.78
CC/C=C\C/C=C\C/C=C\C/C=C\C/C=C\CCCCCC(=O)O [Docosapentaenoic acid] | −19.39
N[C@@H](Cc1ccc(O)cc1)C(=O)O [L-Tyrosine] | −13.45
c1cncnc1 [PYRIMIDINE] | 4.127

Molecule | Relative changed percentage (%)
Cc1ncc(CO)c(CO)c1O.Cl [Pyridoxine Hydrochloride] | −17.45
Iron Gluconate | 3.271
O=C(O)C(=O)O [OXALIC ACID SODIUM SALT] | −16.88
Cl.NCCCC[C@H](N)C(=O)O [L-Lysine hydrochloride] | −1.605
Cn1cnc2c1c(=O)[nH]c(=O)n2C [THEOBROMINE] | 25.42
CC1=CC(=O)C(C(C)C)=CC1=O [Thymoquinone] | 4.558
[Cl][Sn][Cl] [TIN(II) CHLORIDE/Tin, TIN(II) CHLORIDE] | 18.86
N=C(N)NCCC[C@H](N)C(=O)O [L-Arginine] | 10.75
C[N+](C)(C)CCO.[Cl-] [Choline Chloride] | −41.11
ALPHA 1 ANTITRYPSIN, HUMAN PLASMA | −10.6
CCCCCCCCCCCCCC(=O)O [Myristic Acid] | −17.39
[O]=[Zn] [Zinc Oxide] | 3.627
N[C@@H](Cc1cc(I)c(Oc2ccc(O)c(I)c2)c(I)c1)C(=O)[O-].[Na+] [′,5-TRIIODO-L-THYRONINE SODIUM SALT] | −13.42
[Br-].[K+] [POTASSIUM BROMIDE] | 78.36
CC(C)CCC[C@@H](C)[C@H]1CC[C@H]2[C@@H]3CC=C4C[C@@H](O)CC[C@]4(C)[C@H]3CC[C@]12C [CHOLESTEROL] | −31.89
O=S(=O)([O-])[O-].[Mn+2] [Manganese sulfate] | 29.55
CCCCC/C=C\C/C=C\C/C=C\CCCCC(=O)O [Gamma linolenic acid] | 9.058
CC(=O)OCC[N+](C)(C)C.[Cl-] [ACE[…]] | −8.939
CCCCC/C=C\C/C=C\CCCCCCCC(=O)O [linoleic acid] | −9.42
Cl.NCCc1c[nH]c2ccc(O)cc12 [-HYDROXYTRYPTAMINE HYDROCHLORIDE] | −22.39
Cn1c(=O)c2c(ncn2C)n(C)c1=O [Caffeine] | 170.0384
OCC(O)CO [GLYCEROL MOLECULAR BIOLOGY REAGENT, GLYCEROL] | 39.3621

Same assay, conditions: IL-2 production level in treated group compared to control group; 48 hours treatment, then anti-CD3/anti-CD28 12 hours; hemicalcium salt

Molecule | Relative changed percentage (%)
D-Pantothenic Acid, hemicalcium salt | 31.9171

Same assay, conditions: IL-2 production level in treated group compared to control group; 48 hours treatment, then anti-CD3/anti-CD28 12 hours; listed as D-PANTOTHENIC ACID HEMICALCIUM, hemicalcium salt

Molecule | Relative changed percentage (%)
D-Pantothenic Acid, hemicalcium salt | −18.99

System: mouse primary CD8^+ T cells
Assay: In vitro function of activated mouse primary CD8+ T cells (cytokines, Ki-67, apoptosis, p-CREB)
Format: cell-based
Conditions: TVA 12 hours, then 20 mM acetate 12 hours
Method: For experiments with live/dead criteria, cells were first stained with Fixable Viability Dyes (FVD) (Thermo Fisher Scientific) according to the manufacturer's instructions. Subsequent surface marker staining was performed in Flow Cytometry Staining Buffer (Thermo Fisher Scientific). Intracellular staining for flow panels containing nuclear proteins was performed using the eBioscience FoxP3/Transcription Factor Staining Buffer Set (Thermo Fisher Scientific) according to the manufacturer's instructions. For intracellular staining of cytoplasmic proteins, the Fixation/Permeabilization Solution Kit (BD Biosciences) was used according to the manufacturer's instructions. […] The cell pellets were washed again with FACS buffer, centrifuged at 300×g for 5 minutes, and incubated with antibodies in FACS buffer for 45 minutes-1 hour at room temperature. […] Treatment with sulfosuccinimidyl oleate (SSO) was performed by incubating cells with 100 μM SSO for 24 hours.

Molecule | enhanced CD8+ T cell activation by pre-treatment with 20 μM TVA (TVA first)
CC(=O)O [acetate, reference compound] | cannot be reversed by 20 mM acetate

Same assay, conditions: added synchronized with 20 μM TVA for 24 hours; SCH-202676 200 nM, H-89 200 nM, 666-15 100 nM

Molecule | effect of inhibitor/modulator on TVA-enhanced activation of CD8+ T cells (IL-2, TNF-α, IFN-γ)
Br.CN=c1nc(-c2ccccc2)n(-c2ccccc2)s1 [SCH 202676 hydrobromide, reference compound] | abolishes TVA-enhanced activation of CD8^+ T cells

Same assay, conditions: increasing concentrations of acetate up to 20 mM

Molecule | CD8+ T cell activation (TNF-α, IFN-γ levels)
CC(=O)O [acetate, reference compound] | attenuate CD8^+ T cell activation
